# Measured values taken from PubChem BioAssay AID1918942 (Molecular Pharmacology Branch, DTP, NCI, 2023).
# Tested on: 743489-274-T-PDC complex spheroid viability
# Assay: Anticancer human tumor 743489-274-T-PDC patient-derived renal cell carcinoma cell line growth inhibition
# Details: for IC50: curve of first compound; for viability, T/C: stronger effect = lower value
# How it was run: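 Complex spheroids of tumor cells with HUVEC and human MSCs, exposed to iadademstat combined with other agents. Each agent tested in half-log steps from near clinical Cmax (else 10 microM top), DMSO ≤0.25%.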
# [1] = second compound 0.1 µM, first compound 0.000949 µM
# [2] = second compound 0.1 µM, first compound 0.003 µM
# [3] = second compound 0.1 µM, first compound 0.00949 µM
# [4] = second compound 0.1 µM, first compound 0.03 µM
# [5] = second compound 0.1 µM, first compound 0.0949 µM
# [6] = second compound 0.1 µM, first compound 0.3 µM
# [7] = second compound 0.316 µM, first compound 0.000949 µM
# [8] = second compound 0.316 µM, first compound 0.003 µM
# [9] = second compound 0.316 µM, first compound 0.00949 µM
# [10] = second compound 0.316 µM, first compound 0.03 µM
# [11] = second compound 0.316 µM, first compound 0.0949 µM
# [12] = second compound 0.316 µM, first compound 0.3 µM
# [13] = second compound 1 µM, first compound 0.000949 µM
# [14] = second compound 1 µM, first compound 0.003 µM
# [15] = second compound 1 µM, first compound 0.00949 µM
# [16] = second compound 1 µM, first compound 0.03 µM
# [17] = second compound 1 µM, first compound 0.0949 µM
# [18] = second compound 1 µM, first compound 0.3 µM
# [19] = second compound 3.16 µM, first compound 0.000949 µM
# [20] = second compound 3.16 µM, first compound 0.003 µM
# [21] = second compound 3.16 µM, first compound 0.00949 µM
# [22] = second compound 3.16 µM, first compound 0.03 µM
# [23] = second compound 3.16 µM, first compound 0.0949 µM
# [24] = second compound 3.16 µM, first compound 0.3 µM
# [25] = second compound 10 µM, first compound 0.000949 µM
# [26] = second compound 10 µM, first compound 0.003 µM
# [27] = second compound 10 µM, first compound 0.00949 µM
# [28] = second compound 10 µM, first compound 0.03 µM
# [29] = second compound 10 µM, first compound 0.0949 µM
# [30] = second compound 10 µM, first compound 0.3 µM
# 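Further: spheroids exposed to compounds for 7 days before readout.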
# 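Wherever viability, T/C is given: 100% = DMSO vehicle control wells.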
structure (smiles),measurement,setting,value
CC[C@@]1(O)C(=O)OCc2c1cc1n(c2=O)Cc2cc3c(CN(C)C)c(O)ccc3nc2-1 + NC1CCC(NC2CC2c2ccccc2)CC1,IC50,second compound 0.1 µM,> 100 nM
same,IC50,second compound 0.316 µM,> 100 nM
same,IC50,second compound 1 µM,> 100 nM
same,IC50,second compound 3.16 µM,> 100 nM
same,IC50,second compound 10 µM,> 100 nM
same,"viability, T/C","second compound 0.1 µM, first compound 0.000316 µM",119%
same,"viability, T/C","second compound 0.1 µM, first compound 0.001 µM",103%
same,"viability, T/C","second compound 0.1 µM, first compound 0.00316 µM",116%
same,"viability, T/C","second compound 0.1 µM, first compound 0.01 µM",89.5%
same,"viability, T/C","second compound 0.1 µM, first compound 0.0316 µM",75.6%
same,"viability, T/C","second compound 0.1 µM, first compound 0.1 µM",89.9%
same,"viability, T/C","second compound 0.316 µM, first compound 0.000316 µM",107%
same,"viability, T/C","second compound 0.316 µM, first compound 0.001 µM",122%
same,"viability, T/C","second compound 0.316 µM, first compound 0.00316 µM",114%
same,"viability, T/C","second compound 0.316 µM, first compound 0.01 µM",93.3%
same,"viability, T/C","second compound 0.316 µM, first compound 0.0316 µM",96.5%
same,"viability, T/C","second compound 0.316 µM, first compound 0.1 µM",81.1%
same,"viability, T/C","second compound 1 µM, first compound 0.000316 µM",120%
same,"viability, T/C","second compound 1 µM, first compound 0.001 µM",122%
same,"viability, T/C","second compound 1 µM, first compound 0.00316 µM",90.3%
same,"viability, T/C","second compound 1 µM, first compound 0.01 µM",95.5%
same,"viability, T/C","second compound 1 µM, first compound 0.0316 µM",77.8%
same,"viability, T/C","second compound 1 µM, first compound 0.1 µM",81.8%
same,"viability, T/C","second compound 3.16 µM, first compound 0.000316 µM",120%
same,"viability, T/C","second compound 3.16 µM, first compound 0.001 µM",110%
same,"viability, T/C","second compound 3.16 µM, first compound 0.00316 µM",115%
same,"viability, T/C","second compound 3.16 µM, first compound 0.01 µM",78.2%
same,"viability, T/C","second compound 3.16 µM, first compound 0.0316 µM",87.3%
same,"viability, T/C","second compound 3.16 µM, first compound 0.1 µM",71.2%
same,"viability, T/C","second compound 10 µM, first compound 0.000316 µM",120%
same,"viability, T/C","second compound 10 µM, first compound 0.001 µM",127%
same,"viability, T/C","second compound 10 µM, first compound 0.00316 µM",101%
same,"viability, T/C","second compound 10 µM, first compound 0.01 µM",104%
same,"viability, T/C","second compound 10 µM, first compound 0.0316 µM",85.1%
same,"viability, T/C","second compound 10 µM, first compound 0.1 µM",78.9%
CCc1c2c(nc3ccc(O)cc13)-c1cc3c(c(=O)n1C2)COC(=O)[C@]3(O)CC + NC1CCC(NC2CC2c2ccccc2)CC1,IC50,second compound 0.1 µM,65.9 nM
same,IC50,second compound 0.316 µM,28.6 nM
same,IC50,second compound 1 µM,47.8 nM
same,IC50,second compound 3.16 µM,22.1 nM
same,IC50,second compound 10 µM,215 nM
same,"viability, T/C",[1],86.3%
same,"viability, T/C",[2],68.7%
same,"viability, T/C",[3],62.7%
same,"viability, T/C",[4],43.7%
same,"viability, T/C",[5],54.4%
same,"viability, T/C",[6],47.8%
same,"viability, T/C",[7],96.8%
same,"viability, T/C",[8],72.7%
same,"viability, T/C",[9],54.2%
same,"viability, T/C",[10],46.7%
same,"viability, T/C",[11],49.9%
same,"viability, T/C",[12],51.4%
same,"viability, T/C",[13],94.5%
same,"viability, T/C",[14],70.6%
same,"viability, T/C",[15],70%
same,"viability, T/C",[16],50.4%
same,"viability, T/C",[17],42.1%
same,"viability, T/C",[18],44%
same,"viability, T/C",[19],95.2%
same,"viability, T/C",[20],92.8%
same,"viability, T/C",[21],62.1%
same,"viability, T/C",[22],48.2%
same,"viability, T/C",[23],41.3%
same,"viability, T/C",[24],44%
same,"viability, T/C",[25],89.8%
same,"viability, T/C",[26],79.1%
same,"viability, T/C",[27],64.5%
same,"viability, T/C",[28],69.4%
same,"viability, T/C",[29],51.3%
same,"viability, T/C",[30],48.5%
COc1cc(C2c3cc4c(cc3C(OC3OC5COC(C)OC5C(O)C3O)C3COC(=O)C23)OCO4)cc(OC)c1O (stereo not given) + NC1CCC(NC2CC2c2ccccc2)CC1,IC50,second compound 0.1 µM,> 3000 nM
same,IC50,second compound 0.316 µM,> 3000 nM
same,IC50,second compound 1 µM,> 3000 nM
same,IC50,second compound 3.16 µM,> 3000 nM
same,IC50,second compound 10 µM,> 3000 nM
same,"viability, T/C",[3],108%
same,"viability, T/C",[4],119%
same,"viability, T/C",[5],112%
same,"viability, T/C",[6],96.6%
same,"viability, T/C","second compound 0.1 µM, first compound 0.949 µM",106%
same,"viability, T/C","second compound 0.1 µM, first compound 3 µM",85.7%
same,"viability, T/C",[9],105%
same,"viability, T/C",[10],105%
same,"viability, T/C",[11],97.8%
same,"viability, T/C",[12],94.8%
same,"viability, T/C","second compound 0.316 µM, first compound 0.949 µM",91.7%
same,"viability, T/C","second compound 0.316 µM, first compound 3 µM",95.3%
same,"viability, T/C",[15],118%
same,"viability, T/C",[16],121%
same,"viability, T/C",[17],117%
same,"viability, T/C",[18],110%
same,"viability, T/C","second compound 1 µM, first compound 0.949 µM",93.2%
same,"viability, T/C","second compound 1 µM, first compound 3 µM",97.9%
same,"viability, T/C",[21],125%
same,"viability, T/C",[22],113%
same,"viability, T/C",[23],115%
same,"viability, T/C",[24],110%
same,"viability, T/C","second compound 3.16 µM, first compound 0.949 µM",99%
same,"viability, T/C","second compound 3.16 µM, first compound 3 µM",87.9%
same,"viability, T/C",[27],117%
same,"viability, T/C",[28],115%
same,"viability, T/C",[29],112%
same,"viability, T/C",[30],111%
same,"viability, T/C","second compound 10 µM, first compound 0.949 µM",98.6%
same,"viability, T/C","second compound 10 µM, first compound 3 µM",111%
Nc1ccn(C2OC(CO)C(O)C2(F)F)c(=O)n1 (stereo not given) + NC1CCC(NC2CC2c2ccccc2)CC1,IC50,second compound 0.1 µM,> 300 nM
same,IC50,second compound 0.316 µM,> 300 nM
same,IC50,second compound 1 µM,> 300 nM
same,IC50,second compound 3.16 µM,> 300 nM
same,IC50,second compound 10 µM,> 300 nM
same,"viability, T/C",[1],77.8%
same,"viability, T/C",[2],72.3%
same,"viability, T/C",[3],71.5%
same,"viability, T/C",[4],81.7%
same,"viability, T/C",[5],68.9%
same,"viability, T/C",[6],78.4%
same,"viability, T/C",[7],86.3%
same,"viability, T/C",[8],80%
same,"viability, T/C",[9],74.6%
same,"viability, T/C",[10],79.2%
same,"viability, T/C",[11],73.2%
same,"viability, T/C",[12],69.6%
same,"viability, T/C",[13],68.5%
same,"viability, T/C",[14],71.7%
same,"viability, T/C",[15],74.6%
same,"viability, T/C",[16],84.9%
same,"viability, T/C",[17],76.5%
same,"viability, T/C",[18],79.1%
same,"viability, T/C",[19],81.5%
same,"viability, T/C",[20],80%
same,"viability, T/C",[21],85.2%
same,"viability, T/C",[22],78.8%
same,"viability, T/C",[23],76.4%
same,"viability, T/C",[24],68.8%
same,"viability, T/C",[25],91.7%
same,"viability, T/C",[26],78.8%
same,"viability, T/C",[27],84.8%
same,"viability, T/C",[28],92.7%
same,"viability, T/C",[29],74.3%
same,"viability, T/C",[30],80.5%
